Measured values reported in patent US12677850B2, “Stevia blends containing rebaudioside B” (Tate & Lyle Solutions USA LLC, priority 2011, dated 2026).
One block for each compound: values may come before it.

Assays:
[1] = system: panelists (descriptive panel); assay: Descriptive panel: flavor attributes and intensities as a function of rebaudioside B content (Example 6); format: in vivo, human; conditions: for Anise, comparison between the samples / Artificial Sweetener/Chemical, comparison between the samples / Sweetness, comparison between the samples / Total Flavor, comparison between the samples / True Bitter, comparison between the samples / Mouthcoating, comparison between the samples / Total Off Flavor, comparison between the samples: significant at the 95% confidence level
Method: A descriptive panel was used to quantify flavor attributes and intensities of varying levels of rebaudioside B added to rebaudioside A (which was 97% pure and contained 0.62% rebaudioside B). […] An 8% sucrose solution as a control. The solutions were prepared in neutral pH water. Other high intensity sweeteners included in the testing were Aspartame at 500 ppm, ASK at 750 ppm, Sucralose at 250 ppm, and Stevia at 500 ppm.
Before conducting the testing the ten panelists were extensively trained in the use of standardized vocabulary to describe the appearance, aroma, flavor, and texture of a wide variety of products in order to rate the samples for sweetness, bitterness, off flavor, chemical or artificial sweetener flavor, anise, and mouth coating. Each such attribute was evaluated on a first and second sip, and on after-taste. The testing began with a session to orient the panelists during which they tasted the samples and discussed the flavor characteristics. They also tasted and discussed references for “sweet”, “bitter”, and “anise”.
During the second and third days of testing, the panelists evaluated the samples for the various attributes and rated them on a scale from none to extreme that encompasses all food ingredient products, not just sweeteners. The products and solutions set forth in Table 19 were used to “anchor” the panelist to the scales.
Eight samples were evaluated per session. A 7 minute rest break was given between each sample and a 15 minute break was given after the first 4 samples had been evaluated. Two evaluations (i.e. replicates) were obtained from each panelist for each product; therefore, a total of 20 judgments were obtained for each product. During data collection, the panelists were instructed to indicate the intensity of each sensory characteristic by placing a vertical slash on 15-cm line scales. The serving order was balanced, with products seen approximately an equal number of times in each possible position. In the waiting room, ambient Alhambra drinking water, unsalted soda crackers, and celery were provided for cleansing the palate between samples.
Slash marks on the line scales were converted to numbers ranging from 1 to 15 by SIMS, the computerized sensory data collection system. Mean intensities were calculated for each sensory characteristic. Analysis of Variance and Duncan's Multiple Range Test, where appropriate, were used to determine significant differences among the samples for each attribute. When panelist-by-product interactions were significant, the mean square of the interaction term, instead of the mean square of the error term, was used in calculation of the product F values.
The flavor attributes were also compared between the samples.

[2] = system: Tate & Lyle employees (taste panel); assay: Paired comparison test for sweetness and preference, Reb A/Reb B mixture vs 900 ppm 97% rebaudioside A (Example 3); format: in vivo, human; conditions: 536 ppm Reb A + 310 ppm Reb B vs control 900 ppm Reb A; spring water with phosphoric acid; room temperature; test sample tasted first
Method: A taste panel was asked to compare a commercial mixture of rebaudioside A and rebaudioside B and a 900 ppm sample of 97% rebaudioside A. Tate &Lyle employees participated in paired comparison tests for sweetness and preference. Samples were tested at room temperature in two ounce soufflé cups label with random three-digit code& The presentation order was not rotated because of carryover of the off-flavor of rebaudioside A at 900 ppm. The panelist evaluated the test sample first and then the control 900 ppm rebaudioside A sample. The panelists were instructed not to re-taste the samples. Additionally, the panelists were required to wait one minute between testing samples and instructed to clear their palates with a 2% sucrose solution, an unsalted cracker, and bottled water. The panelists were asked to identify the solution that was sweeter and which they like better. The ballot was presented and the data was collected with SIMS sensory software (Sensory Computer Systems, LLC, Morristown, NJ).
The instructions for the paired comparison test were: • (i) It is important that you rinse before and between samples. • (ii) Clear your palate with a bite of cracker. Then rinse with the sugar water. […]

[3] = format: physicochemical; conditions: pH 3
Method: To determine the solubility of rebaudioside A and rebaudioside B in certain solutions, four stock solutions were prepared. A 10× concentrated citric acid/sodium citrate pH 3 stock buffer solution was prepared by dissolving 0.9 g anhydrous citric acid and 0.26 g of sodium citrate dihydrate in water to make 100 mL of buffer (0.047 M citric acid+0.0088 M sodium citrate). A 2500 ppm (nominal) solution of rebaudioside A was prepared by dissolving 0.125 g of GLG RA 97 to make 50 mL of solution. A 2500 ppm (nominal) solution of stevioside was prepared by dissolving 0.125 g of GLG STV 97 to make 50 mL of solution. A 1000 ppm (nominal) solution of rebaudioside B was prepared by diluting 56 mL of a solution assayed at 1790 ppm to make 100 mL of solution.
These solutions were mixed as 1 mL total amounts by micropipetting the volumes, in microliters, into 1.5 mL microcentrifuge tubes As shown in Table 14.
After standing for […] (~100 hours), the tubes were spun in a bench top microcentrifuge to pelletize the precipitate. The clear supernate was sampled into vials and assayed for glycosides using a reverse phase high performance liquid chromatograph (HPLC) gradient method with UV detection (Waters 2695 Separations Module equipped with a Waters 2487 Dual X Absorbance Detector or equivalent instrumentation) that is summarized in Table 15. The HPLC conditions were as follows:
The supernatant data collected from the HPLC were processed using DESIGN EXPERT 8 software. Briefly, the data were entered into the program as “factor” data as a 2 factor-5 level general factorial design as the nominal data which were then converted to numerical data and replaced by the actual HPLC results. The software then selected a model that predicted the concentration (solubility) of rebaudioside B as a function of the concentration of rebaudioside A and stevioside in the supernatant. The software also calculated a number of statistical factors that indicated the significance of the model parameters.

[4] = system: informal testers; assay: Informal testing of bitterness; format: in vivo, human; conditions: adding about 20%; as believed by several informal testers
From the text: Because the scale used encompasses “the universe”, the magnitude of differences between the 97% rebaudioside A solution and increasing levels of rebaudioside B is not as large as other informal testing determined.

[5] = system: Tate & Lyle employees (taste panel); assay: Paired comparison test for sweetness and preference in pH 3.1 citric acid buffer (Examples 1 and 2); format: in vivo, human
Method: A commercial blend of a steviol glycosides was dissolved in 0.0056 M citric acid buffer pH 3.1. A solution containing a commercially available sweetening composition containing 97% rebaudioside A was similarly prepared. Thirty-one […] employees participated in paired comparison tests for sweetness and preference. The products were made up in pH 3.1 citric acid buffer (0.9 grams anhydrous citric […], Decatur, IL) and 026 grams sodium citrate dihydrate ([…], Decatur, IL) per liter and tested at room temperature in two ounce soufflé cups label with random three-digit codes. The presentation order was rotated. The panelists were asked to identify the solution that was sweeter and which they like better. The ballot was presented and the data was collected with SIMS sensory software (Sensory Computer Systems, LLC, Morristown, NJ). Bottled water, a 2% sucrose solution, and unsalted crackers were available for the panelists to clear their palates before and during testing. The results of the sweetness and preference questions were analyzed with the binomial test and the Thurstonian d' calculated. The p-value for a one-tailed binomial test is calculated as [formula] where c is the number of successes, n is the number of trials, and p0 is the chance probability. A test is considered statistically significant when the p-value is less than the a priori set alpha risk. The two-tailed p-value is double the one-tailed p-value as calculated above. Thurstonian d' is a linear measure of psychophysical difference. A d' of 1 is generally considered to be a just-noticeable-difference (JND) where a stimulus will be judge stronger in 75% of the trials. The Thurstonian d' is independent of test method and for paired comparison tests is calculated as pc=Φ(d'/√{square root over (2)}) where pc is the proportion of successes, and Φ(•) is the cumulative distribution function of the standard normal distribution. These statistical terms are more fully defined in standard textbooks on the subject such as “Sensory Discrimination Tests and Measurements”, Jian Bi (Blackwell Publishing, 2006). The instructions for the paired comparison test were: • (i) It is important that you rinse before and between samples. • (ii) Clear your palate with a bite of cracker. Then rinse with the sugar water. […] Pick the sample that you like more and pick the sample that is sweeter. They may or may not be the same sample. If you are not sure or don't have a preference then pick either one. The questions for the paired comparison test were: • (i) Which of these two samples do you like more?, • (ii) Which of the two samples is sweeter? The glycoside blend of a steviol glycosides was dissolved in 0.0056 M citric acid buffer pH 3.1. A solution containing a commercially available sweetening composition containing 97% rebaudioside A was similarly prepared. The two solutions were presented to a panel of […] employees and they were asked to identify the solution that was sweeter and which they like better using the same instructions and questions as set forth above. The results of the sweetness and preference questions were analyzed with the binomial test and the Thurstonian d' calculated as set forth above. A taste panel was asked to compare a commercial mixture of rebaudioside A and stevioside to a 500 ppm sample of 97% rebaudioside A. The glycoside blend of steviol glycosides was dissolved in 0.0056 M citric acid buffer pH 3.1. A solution containing a commercially available sweetening composition containing 97% rebaudioside A was similarly prepared. Sample presentation was rotated and the samples of the two solutions (at room temperature) were presented to a panel of […] employees and they were asked to identify the solution that was sweeter and which they like better using the same instructions and questions as in Example 1. […] Another panel was asked to compare a mixture of rebaudioside B and Stevioside. The glycoside blend of steviol glycosides was dissolved in 0.0056 M citric acid buffer pH 3.1. […]

[6] = 900 ppm rebaudioside A+rebaudioside B in neutral pH water, 8% sucrose control, 15-cm line scale converted to 1 to 15, aftertaste
[7] = 900 ppm rebaudioside A+rebaudioside B in neutral pH water, 8% sucrose control, 15-cm line scale converted to 1 to 15, first sip
[8] = 900 ppm rebaudioside A+rebaudioside B in neutral pH water, 8% sucrose control, 15-cm line scale converted to 1 to 15, second sip
[9] = Commercial Blend (total 518 mg/l) vs 97% rebaudioside A (total 498), room temperature, 31 panelists
[10] = Rebaudioside A & stevioside blend (total 789 mg/l) vs 500 ppm 97% rebaudioside A, 41 panelists
[11] = Rebaudioside B & stevioside blend (total 801 mg/l) vs 97% rebaudioside A (500 ppm), 43 panelists
[12] = Rebaudioside B blend (total 496 mg/l, about 21% Reb B) vs 97% rebaudioside A (total 498), 38 panelists

Compound: OC[C@H]1O[C@@](CO)(O[C@H]2O[C@H](CO)[C@@H](O)[C@H](O)[C@H]2O)[C@@H](O)[C@@H]1O [Sucrose, sucrose]
ANISE: Aftertaste (mean intensity) [1, 6]: 0.13
ARTIFICIAL SWEETENER/CHEMICAL: Aftertaste (mean intensity) [1, 6]: 0.12
SWEET: Aftertaste (mean intensity) [1, 6]: 3.92
TOTAL FLAVOR: Aftertaste (mean intensity) [1, 6]: 4.32
TRUE BITTER: Aftertaste (mean intensity) [1, 6]: 0.15
ANISE: First Sip (mean intensity) [1, 7]: 0.52
ARTIFICIAL SWEETENER/CHEMICAL: First Sip (mean intensity) [1, 7]: 0.59
MOUTHCOATING: First Sip (mean intensity) [1, 7]: 0.76
SWEET: First Sip (mean intensity) [1, 7]: 8.06
TOTAL FLAVOR: First Sip (mean intensity) [1, 7]: 8.67
TOTAL OFF FLAVOR: First Sip (mean intensity) [1, 7]: 0.89
TRUE BITTER: First Sip (mean intensity) [1, 7]: 0.29
ANISE: Second Sip (mean intensity) [1, 8]: 0.41
ARTIFICIAL SWEETENER/CHEMICAL: Second Sip (mean intensity) [1, 8]: 0.41
MOUTHCOATING: Second Sip (mean intensity) [1, 8]: 0.89
SWEET: Second Sip (mean intensity) [1, 8]: 7.43
TOTAL FLAVOR: Second Sip (mean intensity) [1, 8]: 7.86
TOTAL OFF FLAVOR: Second Sip (mean intensity) [1, 8]: 0.49
TRUE BITTER: Second Sip (mean intensity) [1, 8]: 0.24
Anise, comparison between the samples ([1]; aftertaste): Lowest
Artificial Sweetener/Chemical, comparison between the samples ([1]; aftertaste): Lowest
Sweetness, comparison between the samples ([1]; aftertaste): Lowest
Total Flavor, comparison between the samples ([1]; aftertaste): Lowest
True Bitter, comparison between the samples ([1]; aftertaste): Lowest
Anise, comparison between the samples ([1]; first sip): Lowest
Artificial Sweetener/Chemical, comparison between the samples ([1]; first sip): Lowest
Mouthcoating, comparison between the samples ([1]; first sip): Lowest
Sweetness, comparison between the samples ([1]; first sip): Lowest
Total Flavor, comparison between the samples ([1]; first sip): Lowest
Total Off Flavor, comparison between the samples ([1]; first sip): Lowest
True Bitter, comparison between the samples ([1]; first sip): Lowest
Anise, comparison between the samples ([1]; second sip): Lowest
Artificial Sweetener/Chemical, comparison between the samples ([1]; second sip): Lowest
Mouthcoating, comparison between the samples ([1]; second sip): Lowest
Total Flavor, comparison between the samples ([1]; second sip): Lowest
Total Off Flavor, comparison between the samples ([1]; second sip): Lowest
True Bitter, comparison between the samples ([1]; second sip): Lowest

Compound: rebaudioside A [control 900 ppm Reb A]
preference (number of panelists preferring the sample) [2]: 2
sweetness (number of panelists choosing the sample as sweeter) [2]: 15

effect of its presence on the solubility of rebaudioside B [3]: slightly reduces
Compound: C=C1C[C@@]23CC[C@H]4[C@@](C)(CCC[C@@]4(C)C(=O)O[C@@H]4O[C@H](CO)[C@@H](O)[C@H](O)[C@H]4O)[C@@H]2CC[C@]1(O[C@@H]1O[C@H](CO)[C@@H](O)[C@H](O)[C@H]1O[C@@H]1O[C@H](CO)[C@@H](O)[C@H](O)[C@H]1O)C3 [stevioside]

effect of its presence on the solubility of rebaudioside B [3]: increases
Compound: rebaudioside A
reduction of bitterness ([1]; adding about 20%, results from the descriptive panel of tasters): about 30%
reduction of bitterness [4]: about 80%

Compound: rebaudioside A [97% rebaudioside A]
# preferring [5, 9]: 20
# sweeter [5, 9]: 15
# preferring [5, 10]: 37
# sweeter [5, 10]: 19
# preferring [5, 11]: 22
# sweeter [5, 11]: 13
# preferring [5, 12]: 11
# sweeter [5, 12]: 11
